Test results from US20050070555A1, “Aroyl pyridinones” (Bayer HealthCare AG, priority 2001, published 2005).

molecular target: p38 map kinase (Homo sapiens, UniProt Q16539); experiment: P 38 Map Kinase Assay (SPA [33-P] serine/threonine kinase assay); type: biochemical; conditions: 10 μM ATP, 2.5 μM biotinylated myelin basic protein substrate, 500 ng/well enzyme, 90 min, 30° C.
Description: The assay makes use of the serine/theonine protein kinase SPA [33-P]+assay kit from Amersham Phamacia Biotech. The assay is a homogeneous technique using SPA technology for the quantification of serine threonine kinase activity.
It is based on the p38 map kinase catalysed transfer of the γ-phosphate group of the [γ-^33P] […] to the substrate, biotinylated myelin basic protein (MBP). The resulting [^33P]-labelled biotinylated product is trapped on a PVT SPA bead containing scintillant which has been surface coated with streptavidin.
The beads are allowed to settle to eliminate high background, and therefore only ^33P labelled product attached to the SPA bead is detected.
The assay is carried out in the presence and absence of test compounds to determine their effect on p38 map kinase activity.
A test protocol is as follows:
• 1. SPA assay kit (Amersham). Components: • Assay buffer (store frozen) • Stop solution (store frozen). • Streptavidin coated SPA beads—reconstitute with 5 mls of PBS. (50 mg/ml). (Store in fridge) • 2. p 38 map kinase enzyme SCRD (500 μg/ml)—aliquoted in 1.5 mls. • dilute 1:10 to 50 μg/ml • 1 plate—110 μl (stock 500 μg/ml)+990 μl PBS. • 3. Assay reagent: • for 1 plate: 504 μl Assay buffer (500 Mm MOPS pH 7.2, 10 μM ATP, 50 mM MgCl2, 25 μM biotinylated myelin basic protein (MBP)). • 2513.4 μl Water • 1.1 μl 33-p-ATP (10 μCi/ul) (on activity date/adjust for activity date) • 4.534 μl×10^-2M ATP in water • 4. Stop solution: • for 1 plate: 265.92 μl streptavidin coated beads (50 mg/ml) • 1651.684 μl stop buffer (500 μM ATP, 50 mM EDTA 1% Triton X-100) • 7084.32 μl PBS. • 1. Add 10 μl compound Dilutons (5× final conc) Test wells. • 2. Add 10 μl 12.5% DMSO to control/blank wells. • 3. Add 10 μl enzyme (50 μg/ml) final conc 500 ng/well • 4. Add 10 μl PBS to blank wells. • 5. Add 30 μl of assay reagent to each well. (final conc 10 μM ATP, 2.5 μM substrate) • 6. Mix well on plate shaker. • 7. Incubate 90 min (30° C.) • 8. Add 75 μl of stop solution to each well (final conc 55 μM ATP) • 9. Spin plate: −3 min/1600 rpm/20° C. (alternatively leave to settle overnight) • 10. Read in Microbeta, Protocol SPA paralux 3.

Chain of p38 map kinase (Q16539 whole entry): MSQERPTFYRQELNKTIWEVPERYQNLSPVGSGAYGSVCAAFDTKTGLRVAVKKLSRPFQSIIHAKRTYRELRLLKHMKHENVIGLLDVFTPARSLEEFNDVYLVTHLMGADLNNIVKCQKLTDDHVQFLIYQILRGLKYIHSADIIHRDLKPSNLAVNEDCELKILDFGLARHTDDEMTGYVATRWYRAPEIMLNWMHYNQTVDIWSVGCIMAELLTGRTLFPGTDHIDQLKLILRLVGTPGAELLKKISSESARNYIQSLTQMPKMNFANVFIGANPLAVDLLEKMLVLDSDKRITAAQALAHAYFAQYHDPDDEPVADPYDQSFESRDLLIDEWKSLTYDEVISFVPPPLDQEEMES

| IC50 | SMILES |
| --- | --- |
| 340 nM | O=C(c1ccc(F)cc1F)c1ccc(=O)n2c1N[C@@H]1CCCC[C@@H]12 (racemic) [Example 1, (Rac-cis-5a,9a)-4-(2,4-difluorobenzoyl)-5a,6,7,8,9,9a-hexahydropyrido[1,2-a]benzimidazol-1(5H)-one] |
| 386 nM | CC1(C)CNc2c(C(=O)c3ccc(F)cc3)ccc(=O)n2C1 [Example 24, 9-(4-Fluorobenzoyl)-3,3-dimethyl-1,2,3,4-tetrahydro-6H-pyrido[1,2-a]pyrimidin-6-one] |
| 228 nM | O=C(c1cccc(Cl)c1)c1ccc(=O)n2c1N[C@@H]1CCCC[C@@H]12 (racemic) [Example 9, (Rac-cis-5a,9a)-4-(3-chlorobenzoyl)-5a,6,7,8,9,9a-hexahydropyrido[1,2-a]benzimidazol-1(5H)-one] |
| 455 nM | O=C(c1ccccc1)c1ccc(=O)n2c1N[C@@H]1CCCC[C@@H]12 (racemic) [Example 3, (Rac-cis-5a,9a)-4-benzoyl-5a,6,7,8,9,9a-hexahydropyrido[1,2-a]benzimidazol-1(5H)-one] |
| 164 nM | O=C(c1ccc(F)cc1F)c1ccc(=O)n2c1N[C@H]1CCCC[C@@H]12 [Example 2-1, (5aS,9aS)-4-(2,4-difluorobenzoyl)-5a,6,7,8,9,9a-hexahydropyrido[1,2-a]benzimidazol-1(5H)-one] |
| 1800 nM | CC1(C)Cn2c(c(C(=O)c3ccc(Cl)cc3)ccc2=O)N1 [Example 21] |
